Measured values: US20070134156A1, “Fatigue evaluation apparatus, fatigue evaluation method, and application thereof” (SOIKEN INC., priority 2004, published 2007)

Experiment: Four hours of driving-simulator combined fatigue loading after intake of tryptophan; concentration of tryptophan in plasma
Format: in vivo, human
Text: Twelve healthy males who were in their twenties served as subjects. Each of the subjects was right-handed, had at least one year of experience as a licensed driver, and drove an ordinary motor vehicle at least once a week. Further, patients with sinus problems, smokers, users of drugs (such as caffeinated or spiced food products and anti-allergic drugs, which affect a central nervous system) were excluded.
The subject was subjected to driving work loading by using a driving simulator (ACCESS MASTER AM2330 manufactured by Tasknet Inc.).
In order to study an effect of tryptophan on fatigue, each of the subjects in a tryptophan group who received tryptophan before loading was subjected to four hours of simulator driving without a break, and each of the subjects in a placebo group who received a placebo before loading was subjected to four hours of simulator driving without a break. The same subject received 5 mg/kg of tryptophan or a placebo at least one week apart, and participated in the experiment.
Blood sample was taken from the subjects according to the experimental schedule shown in Table 4 so as to measure concentrations of amino acids in their plasma.

N[C@@H](Cc1c[nH]c2ccccc12)C(=O)O [tryptophan]
concentration at 4 h (male, human, plasma, oral, tryptophan group, 5 mg/kg tryptophan taken before loading, after four hours of simulator driving, healthy males): 39 µM | concentration of tryptophan in plasma before fatigue loading (tryptophan group (5 mg/kg tryptophan), blood sampled before intake and before four hours of simulator driving, healthy males): 43 µM | change in concentration of tryptophan in plasma between before and after fatigue loading (tryptophan group, 5 mg/kg before loading, four hours of simulator driving, placebo group showed a significant decrease): no significant decrease
